Measurements: publication PMC8007111, “Novel Potent Muscarinic Receptor Antagonists: Investigation on the Nature of Lipophilic Substituents in the 5- and/or 6-Positions of the 1,4-Dioxane Nucleus” (Journal of Medicinal Chemistry, 2020)

Tests used:
Conditions in all cases: [3H]NMS, CHO-K1 cell membranes, mean ± S.E.M.
[1] = target: T1, hM1 mAChR (Homo sapiens, UniProt P11229); experiment: [3H]NMS inhibition radioligand binding, hM1 in CHO-K1 cell membranes
T1 construct: expressed in transfected cells; host or cells: CHO-K1 (membrane preparation)
T1 sequence (P11229 1-460): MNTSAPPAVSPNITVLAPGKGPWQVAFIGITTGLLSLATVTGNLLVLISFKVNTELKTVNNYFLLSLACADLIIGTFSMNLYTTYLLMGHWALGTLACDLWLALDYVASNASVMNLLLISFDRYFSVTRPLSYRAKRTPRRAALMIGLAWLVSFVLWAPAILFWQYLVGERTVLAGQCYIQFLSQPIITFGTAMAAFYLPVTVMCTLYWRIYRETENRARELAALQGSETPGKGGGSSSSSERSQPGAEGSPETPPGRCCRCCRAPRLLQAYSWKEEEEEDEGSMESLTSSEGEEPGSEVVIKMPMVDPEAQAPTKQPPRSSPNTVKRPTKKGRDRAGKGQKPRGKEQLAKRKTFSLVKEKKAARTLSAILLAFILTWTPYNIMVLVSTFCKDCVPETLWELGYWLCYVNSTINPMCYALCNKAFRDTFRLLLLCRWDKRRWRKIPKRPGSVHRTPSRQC
Procedure: (§1) CHO-K1 cells stably transfected with the human muscarinic receptor subtypes (hM1–5) were grown in Dulbecco’s modified Eagle’s medium (DMEM) with nutrient mixture F12 (DMEM/F12, 50/50), containing 10% fetal bovine serum, penicillin (100 U/mL), streptomycin (100 U/mL), L-glutamine (4 mM), and geneticin (G-418, 50 μg/mL) at 37 °C in a 5% CO2 humidified incubator. […] Serum (0.7 mL) was added to inactivate the trypsin, and the cells were spun down by centrifuging at 300g for 5 min. The cells were then resuspended in ice-cold 25 mM sodium phosphate buffer containing 5 mM MgCl2, pH 7.4 (binding buffer) and homogenized using a cell disrupter (Ultra-Turrax, setting 3, 30 s). The homogenate was sedimented by centrifugation (17,000g, 15 min). The supernatant was discarded, and the resulting membrane pellets were resuspended with Ultra-Turrax in the same buffer to give a final protein concentration of 1–2 mg/mL. The protein content was determined by the method of Bradford (1976) with bovine serum albumin (Sigma) as a standard and stored at −80 °C.
(§2) Inhibition radioligand binding assays were conducted as previously described[48],[49] with 0.2 nM [^3H]NMS in binding buffer in a final volume of 250 μL. Nonspecific binding was defined in the presence of 10 μM atropine. Briefly, membrane fractions (about 25–70 μg/mL of protein) were incubated with radioligand and unlabeled test compounds for 2 h at r.t. Bound and free radioactivity were separated by filtering the assay mixture through UniFilter GF/B plates using a FilterMate Cell Harvester (PerkinElmer Life and Analytical Science). The filter bound radioactivity was counted by a TopCount NXT Microplate Scintillation Counter (PerkinElmer Life and Analytical Science). Data (cpm) were normalized to percentage-specific binding and analyzed using a four-parameter logistic equation in GraphPad Prism 5.02; IC50 values were determined, and Ki values were calculated.[59]

[2] = target: T2, hM2 mAChR (Homo sapiens, UniProt P08172); experiment: [3H]NMS inhibition radioligand binding, hM2 in CHO-K1 cell membranes
T2 construct: expressed in transfected cells; host or cells: CHO-K1 (membrane preparation)
T2 sequence (P08172 1-466): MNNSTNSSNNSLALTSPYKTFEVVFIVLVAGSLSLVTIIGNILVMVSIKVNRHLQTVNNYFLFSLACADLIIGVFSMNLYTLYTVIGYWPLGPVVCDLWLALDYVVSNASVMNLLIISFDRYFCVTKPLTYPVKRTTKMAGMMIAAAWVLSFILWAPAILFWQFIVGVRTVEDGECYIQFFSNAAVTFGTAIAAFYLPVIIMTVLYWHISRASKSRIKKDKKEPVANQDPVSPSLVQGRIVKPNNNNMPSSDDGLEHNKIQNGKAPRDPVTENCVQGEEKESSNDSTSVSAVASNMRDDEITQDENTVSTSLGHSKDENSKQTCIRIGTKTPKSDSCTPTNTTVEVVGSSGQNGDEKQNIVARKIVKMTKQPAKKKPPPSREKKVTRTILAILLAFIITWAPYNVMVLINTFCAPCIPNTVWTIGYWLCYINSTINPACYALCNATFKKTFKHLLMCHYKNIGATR
Procedure: as §1, §2

[3] = target: T3, hM3 mAChR (Homo sapiens, UniProt P20309); experiment: [3H]NMS inhibition radioligand binding, hM3 in CHO-K1 cell membranes
T3 construct: expressed in transfected cells; host or cells: CHO-K1 (membrane preparation)
Procedure: as §1, §2

[4] = target: T4, hM4 mAChR (Homo sapiens, UniProt P08173); experiment: [3H]NMS inhibition radioligand binding, hM4 in CHO-K1 cell membranes
T4 construct: expressed in transfected cells; host or cells: CHO-K1 (membrane preparation)
T4 sequence (P08173 1-479): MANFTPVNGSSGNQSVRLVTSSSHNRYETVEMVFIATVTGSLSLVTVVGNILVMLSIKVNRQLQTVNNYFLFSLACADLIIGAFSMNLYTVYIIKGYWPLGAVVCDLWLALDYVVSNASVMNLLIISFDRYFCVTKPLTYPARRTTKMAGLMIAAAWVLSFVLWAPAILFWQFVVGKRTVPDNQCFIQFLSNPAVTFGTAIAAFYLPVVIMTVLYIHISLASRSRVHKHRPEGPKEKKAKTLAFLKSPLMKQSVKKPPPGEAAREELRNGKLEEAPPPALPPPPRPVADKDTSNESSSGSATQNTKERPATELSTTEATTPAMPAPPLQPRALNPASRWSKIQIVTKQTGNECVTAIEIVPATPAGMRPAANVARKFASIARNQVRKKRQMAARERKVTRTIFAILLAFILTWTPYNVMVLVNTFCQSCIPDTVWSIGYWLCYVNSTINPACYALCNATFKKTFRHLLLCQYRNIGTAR
Procedure: as §1, §2

[5] = target: T5, hM5 mAChR (Homo sapiens, UniProt P08912); experiment: [3H]NMS inhibition radioligand binding, hM5 in CHO-K1 cell membranes
T5 construct: expressed in transfected cells; host or cells: CHO-K1 (membrane preparation)
T5 sequence (P08912 1-532): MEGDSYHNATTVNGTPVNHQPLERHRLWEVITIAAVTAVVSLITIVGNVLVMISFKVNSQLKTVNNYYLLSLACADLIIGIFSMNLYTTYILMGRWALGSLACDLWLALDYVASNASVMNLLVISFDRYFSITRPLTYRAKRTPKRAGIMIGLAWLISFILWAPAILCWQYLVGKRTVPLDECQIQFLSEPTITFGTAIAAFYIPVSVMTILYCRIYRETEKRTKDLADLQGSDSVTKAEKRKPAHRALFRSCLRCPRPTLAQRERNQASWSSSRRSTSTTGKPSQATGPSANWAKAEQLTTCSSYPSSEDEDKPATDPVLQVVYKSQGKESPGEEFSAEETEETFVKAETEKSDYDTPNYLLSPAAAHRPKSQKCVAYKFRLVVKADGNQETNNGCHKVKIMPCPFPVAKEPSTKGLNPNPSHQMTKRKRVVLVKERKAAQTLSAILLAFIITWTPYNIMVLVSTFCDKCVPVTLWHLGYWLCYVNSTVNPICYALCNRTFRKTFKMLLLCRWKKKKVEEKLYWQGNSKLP
Procedure: as §1, §2

T3 sequence (P20309 whole entry): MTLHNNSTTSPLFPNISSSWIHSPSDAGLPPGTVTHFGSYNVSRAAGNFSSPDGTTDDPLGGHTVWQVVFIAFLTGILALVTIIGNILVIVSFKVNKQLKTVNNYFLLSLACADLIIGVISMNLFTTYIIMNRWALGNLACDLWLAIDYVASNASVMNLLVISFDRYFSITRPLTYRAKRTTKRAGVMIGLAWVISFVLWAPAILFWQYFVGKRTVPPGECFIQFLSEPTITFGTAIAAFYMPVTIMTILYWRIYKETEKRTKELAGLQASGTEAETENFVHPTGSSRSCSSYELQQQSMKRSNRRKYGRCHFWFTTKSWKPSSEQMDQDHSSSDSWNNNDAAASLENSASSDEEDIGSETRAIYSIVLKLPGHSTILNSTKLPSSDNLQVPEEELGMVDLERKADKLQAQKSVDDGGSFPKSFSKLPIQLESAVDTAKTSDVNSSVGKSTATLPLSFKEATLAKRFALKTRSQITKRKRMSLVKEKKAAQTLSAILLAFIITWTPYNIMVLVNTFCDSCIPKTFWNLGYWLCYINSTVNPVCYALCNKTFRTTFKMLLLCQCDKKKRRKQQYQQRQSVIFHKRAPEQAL

SMILES	pKi hM1 [1]	pKi hM2 [2]	pKi hM3 [3]	pKi hM4 [4]	pKi hM5 [5]	Ki ([1]; read-out: pKi hM1 (converted)) [µM]	Ki ([2]; read-out: pKi hM2 (converted)) [µM]	Ki ([3]; read-out: pKi hM3 (converted)) [µM]	Ki ([4]; read-out: pKi hM4 (converted)) [µM]	Ki ([5]; read-out: pKi hM5 (converted)) [µM]
C[N+](C)(C)C[C@@H]1COC(c2ccccc2)C(c2ccccc2)(c2ccccc2)O1 (stereo in doubt) [19a, 1-((2R*,5S*)-5,6,6-Triphenyl-1,4-dioxan-2-yl)-N,N,N-trimethylmethanaminium Iodide]	–	–	–	–	–	0.676	4.37	2	3.89	3.98
C[N+](C)(C)C[C@@H]1COC[C@](c2ccccc2)(C2CCCCC2)O1 [(2R,6R)-(+)-3b, 1-((2R,6R)-6-Cyclohexyl-6-phenyl-1,4-dioxan-2-yl)-N,N,N-trimethylmethanaminium Iodide]	8.30 ± 0.25	7.86 ± 0.14	7.51 ± 0.12	7.45 ± 0.11	7.68 ± 0.35	–	–	–	–	–
C[N+](C)(C)C[C@@H]1CO[C@@](c2ccccc2)(C2CCCCC2)CO1.[I-] (relative stereo) [11a, 1-((2R*,5R*)-5-Cyclohexyl-5-phenyl-1,4-dioxan-2-yl)-N,N,N-trimethylmethanaminium Iodide]	8.01 ± 0.06	7.26 ± 0.08	7.43 ± 0.09	7.15 ± 0.09	7.45 ± 0.08	–	–	–	–	–
C[N+](C)(C)C[C@@H]1COC[C@@H](c2ccc(-c3ccccc3)cc2)O1.[I-] (relative stereo) [4b, 1-((2R*,6R*)-6-([1,1′-Biphenyl]-4-yl)-1,4-dioxan-2-yl)-N,N,N-trimethylmethanaminium Iodide]	<5	5.27 ± 0.12	<5	<5	<5	–	–	–	–	–
C[N+](C)(C)C[C@@H]1CO[C@](c2ccccc2)(C2CCCCC2)CO1.[I-] (relative stereo) [11b, 1-((2R*,5S*)-5-Cyclohexyl-5-phenyl-1,4-dioxan-2-yl)-N,N,N-trimethylmethanaminium Iodide]	7.81 ± 0.04	7.22 ± 0.11	7.36 ± 0.10	7.23 ± 0.10	7.32 ± 0.09	–	–	–	–	–
C[N+](C)(C)C[C@@H]1COC[C@@H](c2ccc([S+]([O-])c3ccccc3)cc2)O1.[I-] (relative stereo) [7b, 1-((2R*,6R*)-6-(4-(Phenylsulfinyl)phenyl)-1,4-dioxan-2-yl)-N,N,N-trimethylmethanaminium Iodide]	5.17 ± 0.08	6.38 ± 0.10	5.88 ± 0.14	5.42 ± 0.02	5.74 ± 0.16	–	–	–	–	–

Continued, values first:

pKi hM1 [1]	pKi hM2 [2]	pKi hM3 [3]	pKi hM4 [4]	pKi hM5 [5]	Ki ([1]; read-out: pKi hM1 (converted)) [µM]	Ki ([2]; read-out: pKi hM2 (converted)) [µM]	Ki ([3]; read-out: pKi hM3 (converted)) [µM]	Ki ([4]; read-out: pKi hM4 (converted)) [µM]	Ki ([5]; read-out: pKi hM5 (converted)) [µM]	SMILES
<5	<5	<5	<5	<5	–	–	–	–	–	C[N+](C)(C)C[C@@H]1CO[C@@H](c2ccc(Cc3ccccc3)cc2)CO1.[I-] (relative stereo) [14b, 1-((2R*,5S*)-5-(4-Benzylphenyl)-1,4-dioxan-2-yl)-N,N,N-trimethylmethanaminium Iodide]
<5	5.06 ± 0.02	<5	<5	<5	–	–	–	–	–	C[N+](C)(C)C[C@@H]1COC[C@H](c2ccc(-c3ccccc3)cc2)O1.[I-] (relative stereo) [4a, 1-((2R*,6S*)-6-([1,1′-Biphenyl]-4-yl)-1,4-dioxan-2-yl)-N,N,N-trimethylmethanaminium Iodide]
5.43 ± 0.09	6.70 ± 0.13	6.01 ± 0.11	5.70 ± 0.01	6.00 ± 0.14	–	–	–	–	–	C[N+](C)(C)C[C@@H]1CO[C@H](c2ccc(Sc3ccccc3)cc2)CO1.[I-] (relative stereo) [15a, 1-((2R*,5R*)-5-(4-(Phenylthio)phenyl)-1,4-dioxan-2-yl)-N,N,N-trimethylmethanaminium Iodide]
5.57 ± 0.07	5.86 ± 0.04	5.35 ± 0.06	5.14 ± 0.01	5.40 ± 0.15	–	–	–	–	–	C[N+](C)(C)C[C@@H]1CO[C@@H](c2ccc(Sc3ccccc3)cc2)CO1.[I-] (relative stereo) [15b, 1-((2R*,5S*)-5-(4-(Phenylthio)phenyl)-1,4-dioxan-2-yl)-N,N,N-trimethylmethanaminium Iodide]
